Test [1] deals with T1, CDK9/CycT1 (Homo sapiens (Human), UniProt P50750). Briefly: CDK9 kinase assay, ATP concentration at Km (mobility shift, Caliper LC3000). The format is biochemical. The settings on record: 6 μM ATP, 3 nM CDK9/CycT1; read-out: CDK9 ATP conc. at Km (IC50). The method in brief:
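3 nM CDK9/CycT1 with 6 µM ATP and 1.5 µM FITC-peptide (HEPES pH 7.2) was preincubated with compound 15 min at 25 °C. Reaction started with 10 mM MgCl2 and ran 90 min at 25 °C. Turnover was measured by mobility-shift separation of phosphorylated and unphosphorylated peptide.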

The next test concerns MV411 cells. Kind of test: MV411 caspase activity assay (Caspase-Glo 3/7). It counts as cell-based. The note with it: Homo sapiens, MV4-11, 6 h, 6-hr treatment, caspase 3/7 induction. Put shortly:
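MV411 AML cells (3000/well) were plated overnight, then treated with compound for 6 h at 37 °C. Caspase-3/7 activity was read as luminescence after 30 min with Caspase-Glo 3/7 reagent at room temperature.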

In test [2] the test system is phosphorylation of RNA Polymerase II (RNAPII) at the Ser2 site in MCF7 cells. Briefly: MCF7 pSer2 RNAPII MOA assay (immunofluorescence). The format is cell-based. The note with it: Homo sapiens, MCF7, 6 h, 6-hr treatment, read-out: p-Ser 2 RNAPII (IC50). The method in brief: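 MCF7 cells (2500/well), plated overnight, were treated for 6 h at 37° C. with CDK9 inhibitors in a 7-point dose response from 3 μM to 0.004 μM. Cells were then fixed, permeabilized and immunostained for Ser2-phospho RNAPII with Alexa Fluor 488 secondary plus DAPI. Per-well phosphorylation was read by microplate cytometry.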

The target of test [3] is T1, CDK9/CycT1. Kind of test: CDK9 kinase assay, high ATP concentration (5 mM ATP). It counts as biochemical. The settings on record: 1.5 nM CDK9, read-out: CDK9 High ATP conc. (IC50). The method in brief: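 Caliper mobility-shift read-out of phosphorylated vs unphosphorylated FITC-peptide (1.5 μM), giving percent turnover. Final 1.5 nM CDK9/CycT1 and 5 mM ATP in 50 mM HEPES pH 7.2, 1 mM DTT, 10 mM MgCl2; compound preincubated 15 min, reaction 90 min at 25° C, stopped with EDTA.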

From patent US10717746B2, “Chemical compounds” (ASTRAZENECA AB, priority 2015, dated 2020) come the findings set out here.

As usually defined, the IC50 is the concentration that inhibits the measured activity by half.

Bounds are passed on as bounds.

T1 sequence (P50750 whole entry): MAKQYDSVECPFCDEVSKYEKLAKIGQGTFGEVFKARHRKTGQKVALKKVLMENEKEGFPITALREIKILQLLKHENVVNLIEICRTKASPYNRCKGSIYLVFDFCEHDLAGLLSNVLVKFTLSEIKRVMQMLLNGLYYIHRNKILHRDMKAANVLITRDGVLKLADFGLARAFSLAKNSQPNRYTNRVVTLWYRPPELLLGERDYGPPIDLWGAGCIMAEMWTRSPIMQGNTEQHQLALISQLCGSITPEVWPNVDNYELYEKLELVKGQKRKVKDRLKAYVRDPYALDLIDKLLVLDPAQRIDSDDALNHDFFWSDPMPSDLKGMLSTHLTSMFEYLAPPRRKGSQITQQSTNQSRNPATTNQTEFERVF
T1 sequence (O60563 whole entry partner): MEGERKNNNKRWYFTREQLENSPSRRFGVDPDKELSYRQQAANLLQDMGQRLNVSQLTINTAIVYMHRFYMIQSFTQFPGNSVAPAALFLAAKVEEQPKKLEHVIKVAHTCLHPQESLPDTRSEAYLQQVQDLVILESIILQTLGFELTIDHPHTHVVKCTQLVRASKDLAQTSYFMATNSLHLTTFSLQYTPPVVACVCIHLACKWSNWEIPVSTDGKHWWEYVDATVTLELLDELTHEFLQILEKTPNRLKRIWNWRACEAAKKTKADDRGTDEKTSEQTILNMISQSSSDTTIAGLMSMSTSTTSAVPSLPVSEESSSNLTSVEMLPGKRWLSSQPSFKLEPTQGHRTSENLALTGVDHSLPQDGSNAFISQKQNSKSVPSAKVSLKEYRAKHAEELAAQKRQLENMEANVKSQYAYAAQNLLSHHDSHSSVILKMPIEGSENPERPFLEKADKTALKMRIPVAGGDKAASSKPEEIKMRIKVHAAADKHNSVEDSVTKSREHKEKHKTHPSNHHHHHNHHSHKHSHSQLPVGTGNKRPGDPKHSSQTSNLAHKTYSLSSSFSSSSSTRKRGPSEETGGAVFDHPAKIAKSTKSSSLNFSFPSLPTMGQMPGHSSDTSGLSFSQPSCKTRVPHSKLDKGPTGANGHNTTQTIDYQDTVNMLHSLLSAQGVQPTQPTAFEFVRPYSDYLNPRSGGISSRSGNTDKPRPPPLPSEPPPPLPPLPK

On to `CC(C)(C)OC(=O)N[C@@H]1CCC[C@H](C(=O)Nc2cc(-c3cnn4c3CCCC4)c(Cl)cn2)C1` [Example 31a, tert-butyl ((1R,3S)-3-((5-chloro-4-(4,5,6,7-tetrahydropyrazolo[1,5-a]pyridin-3-yl)pyridin-2-yl)carbamoyl)cyclohexyl)carbamate], for which the IC50 at CDK9/CycT1 [1] is less than 3 nM; in the test on MV411 cells, 177 nM; in test [2], 170 nM; on CDK9/CycT1 [3], 16 nM.
Consider `CC1(C)Cc2c(-c3cc(NC(=O)[C@H]4CCC[C@@H](NC(=O)[C@H]5CCCO5)C4)ncc3Cl)cnn2C1` [Example 46, (R)—N-((1R,3S)-3-((5-chloro-4-(5,5-dimethyl-5,6-dihydro-4H-pyrrolo[1,2-b]pyrazol-3-yl)pyridin-2-yl)carbamoyl)cyclohexyl)tetrahydrofuran-2-carboxamide], for which the concentration for half-maximal inhibition (IC50) at CDK9/CycT1 [1] is less than 3 nM; with MV411 cells, 12 nM; in test [2], 9 nM; at CDK9/CycT1 [3], less than 4 nM.
As for `CC1(C)Cc2ncc(-c3cc(NC(=O)[C@H]4CCC[C@@H](NC(=O)C5COC5)C4)ncc3Cl)n2C1` [Example 57, N-((1R,3S)-3-((5-chloro-4-(6,6-dimethyl-6,7-dihydro-5H-pyrrolo[1,2-a]imidazol-3-yl)pyridin-2-yl)carbamoyl)cyclohexyl)oxetane-3-carboxamide], the half-inhibitory concentration (IC50) on CDK9/CycT1 [1] is less than 3 nM; in the test with MV411 cells, 53 nM; in test [2], 28 nM; at CDK9/CycT1 [3], 4 nM.
For the compound `N#CCC(=O)N[C@@H]1CCC[C@H](C(=O)Nc2cc(-c3cnn4c3CCCC4)c(Cl)cn2)C1` [Example 31, (1S,3R)—N-(5-chloro-4-(4,5,6,7-tetrahydropyrazolo[1,5-a]pyridin-3-yl)pyridin-2-yl)-3-(2-cyanoacetamido)cyclohexanecarboxamide], the half-maximal inhibitory concentration (IC50) is less than 3 nM at CDK9/CycT1 [1], 90 nM in the test on MV411 cells, 36 nM in test [2] and 12 nM on CDK9/CycT1 [3].
For `CC(=O)N[C@@H]1CCC[C@H](C(=O)Nc2cc(-c3cn[nH]c3CC(C)(C)CO)c(Cl)cn2)C1` [Example 82a, (1S,3R)-3-acetamido-N-(5-chloro-4-(5-(3-hydroxy-2,2-dimethylpropyl)-1H-pyrazol-4-yl)pyridin-2-yl)cyclohexane-1-carboxamide], in that order: 4 nM, 2260 nM, greater than 2340 nM and 139 nM.
For `CC1(C)Cc2c(-c3cc(NC(=O)[C@H]4C[C@@H](O)C4)ncc3Cl)cnn2C1` [Example 27, cis-N-(5-chloro-4-(5,5-dimethyl-5,6-dihydro-4H-pyrrolo[1,2-b]pyrazol-3-yl)pyridin-2-yl)-3-hydroxycyclobutanecarboxamide], in that order: less than 3 nM, 38 nM, 44 nM and 25 nM.
On the same counts, the results for `CC1(C)Cc2c(-c3cc(NC(=O)[C@H]4CCC[C@@H](NC(=O)[C@@H]5CCCO5)C4)ncc3Cl)cnn2C1` [Example 45, (S)—N-((1R,3S)-3-((5-chloro-4-(5,5-dimethyl-5,6-dihydro-4H-pyrrolo[1,2-b]pyrazol-3-yl)pyridin-2-yl)carbamoyl)cyclohexyl)tetrahydrofuran-2-carboxamide] are less than 3 nM, 8 nM, 12 nM and less than 4 nM.
For `CC(=O)N[C@@H]1CCC[C@H](C(=O)Nc2cc(-c3cnn4c3NCCC4)c(Cl)cn2)C1` [Example 15, (1S,3R)-3-acetamido-N-(5-chloro-4-(4,5,6,7-tetrahydropyrazolo[1,5-a]pyrimidin-3-yl)pyridin-2-yl)cyclohexanecarboxamide], the IC50 on CDK9/CycT1 [1] turned out to be 5 nM; with MV411 cells, 669 nM; in test [2] it was 1300 nM; at CDK9/CycT1 [3] it was 350 nM.
On the same counts, the results for `CC1(C)Cc2c(-c3cc(NC(=O)[C@H]4CCC[C@@H](NC(=O)C5(O)CC5)C4)ncc3F)cnn2C1` [Example 55, (1S,3R)—N-(4-(5,5-dimethyl-5,6-dihydro-4H-pyrrolo[1,2-b]pyrazol-3-yl)-5-fluoropyridin-2-yl)-3-(1-hydroxycyclopropanecarboxamido)cyclohexanecarboxamide] are less than 3 nM, 10 nM, 7 nM and less than 3 nM.
On the same counts, the results for `C[C@H](O)C(=O)N[C@@H]1CCC[C@H](C(=O)Nc2cc(-c3cnn4c3CC(C)(C)C4)c(Cl)cn2)C1` [Example 20, (1S,3R)—N-(5-chloro-4-(5,5-dimethyl-5,6-dihydro-4H-pyrrolo[1,2-b]pyrazol-3-yl)pyridin-2-yl)-3-((S)-2-hydroxypropanamido)cyclohexanecarboxamide] are less than 3 nM, 14 nM, 10 nM and less than 3 nM.
Turning to `CC(=O)N[C@@H]1CCC[C@H](C(=O)Nc2cc(-c3cnn4c3CCCC4)c(F)cn2)C1` [Example 63, (1S,3R)-3-acetamido-N-(5-fluoro-4-(4,5,6,7-tetrahydropyrazolo[1,5-a]pyridin-3-yl)pyridin-2-yl)cyclohexanecarboxamide], the half-inhibitory concentration (IC50) at CDK9/CycT1 [1] is less than 3 nM; in the test with MV411 cells, 159 nM; in test [2], 104 nM; on CDK9/CycT1 [3], 51 nM.
As for `O=C(Nc1cc(-c2cnn3c2CCCC3)ncn1)[C@H]1C[C@H](O)C1` [Example 29, trans-3-hydroxy-N-(6-(4,5,6,7-tetrahydropyrazolo[1,5-a]pyridin-3-yl)pyrimidin-4-yl)cyclobutanecarboxamide], the IC50 on CDK9/CycT1 [1] was 63 nM; in the test on MV411 cells, 7220 nM; in test [2], greater than 2630 nM; on CDK9/CycT1 [3], 7540 nM.
Take `CC(=O)N[C@@H]1CCC[C@H](C(=O)Nc2cc(-c3cnn4c3CC(C)C4)c(Cl)cn2)C1` (single isomer, unassigned) [Example 42]: the half-maximal inhibitory concentration (IC50) on CDK9/CycT1 [1] was less than 3 nM; in the test on MV411 cells, 92 nM; in test [2] it was 36 nM; at CDK9/CycT1 [3] it was 26 nM.
With `CC1(C)Cc2c(-c3cc(NC(=O)[C@H]4CCC[C@@H](NC(=O)[C@@H]5CCOC5)C4)ncc3Cl)cnn2C1` [Example 23, (R)—N-((1R,3S)-3-((5-chloro-4-(5,5-dimethyl-5,6-dihydro-4H-pyrrolo[1,2-b]pyrazol-3-yl)pyridin-2-yl)carbamoyl)cyclohexyl)tetrahydrofuran-3-carboxamide], the IC50 was less than 3 nM at CDK9/CycT1 [1], 12 nM with MV411 cells, 6 nM in test [2] and less than 3 nM at CDK9/CycT1 [3].
With `CC1(C)Cc2c(-c3ccnc(NC(=O)[C@H]4CCC[C@@H](NC(=O)C5COC5)C4)c3)cnn2C1` [Example 18, N-((1R,3S)-3-((4-(5,5-dimethyl-5,6-dihydro-4H-pyrrolo[1,2-b]pyrazol-3-yl)pyridin-2-yl)carbamoyl)cyclohexyl)oxetane-3-carboxamide], the concentration for half-maximal inhibition (IC50) was less than 3 nM at CDK9/CycT1 [1], 71 nM with MV411 cells, 122 nM in test [2] and 14 nM at CDK9/CycT1 [3].
For `CC1(C)Cc2c(-c3cc(NC(=O)[C@H]4CCC[C@@H](N)C4)ncc3F)cnn2C1` [Example 54, (1S,3R)-3-amino-N-(4-(5,5-dimethyl-5,6-dihydro-4H-pyrrolo[1,2-b]pyrazol-3-yl)-5-fluoropyridin-2-yl)cyclohexane-1-carboxamide], in that order: 10 nM, 431 nM, 455 nM and 777 nM.
For `Cc1cnc(NC(=O)[C@H]2CCC[C@@H](NC(=O)C3COC3)C2)cc1-c1cnn2c1CC(C)(C)C2` [Example 76, N-((1R,3S)-3-((4-(5,5-dimethyl-5,6-dihydro-4H-pyrrolo[1,2-b]pyrazol-3-yl)-5-methylpyridin-2-yl)carbamoyl)cyclohexyl)oxetane-3-carboxamide], in that order: less than 3 nM, 36 nM, 38 nM and 9 nM.
For `CC1(C)Cc2ncc(-c3cc(NC(=O)[C@H]4CCC[C@@H](NC(=O)C5(O)CC5)C4)ncc3Cl)n2C1` [Example 56, (1S,3R)—N-(5-chloro-4-(6,6-dimethyl-6,7-dihydro-5H-pyrrolo[1,2-a]imidazol-3-yl)pyridin-2-yl)-3-(1-hydroxycyclopropanecarboxamido)cyclohexanecarboxamide], in that order: less than 3 nM, 22 nM, 29 nM and 4 nM.
With `CC1(C)Cc2c(-c3cc(NC(=O)[C@H]4CCC[C@@H](NC(=O)[C@H]5C[C@@H](O)C5)C4)ncc3Cl)cnn2C1` [Example 53, (1S,3R)—N-(5-chloro-4-(5,5-dimethyl-5,6-dihydro-4H-pyrrolo[1,2-b]pyrazol-3-yl)pyridin-2-yl)-3-(cis-3-hydroxycyclobutanecarboxamido)cyclohexanecarboxamide], the IC50 on CDK9/CycT1 [1] is less than 3 nM; in the test on MV411 cells, 13 nM; in test [2] it was 12 nM; on CDK9/CycT1 [3], less than 3 nM.
